Source: PubChem BioAssay (NCI)
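GI50: concentration for 50% inhibition of growth. TGI denotes the concentration required for complete inhibition of growth.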

What was measured:
Test in all cases: DTP human tumour cell line panel, 384-well format
NCI-H322M lung = test system: NCI-H322M lung
NCI-H460 NSCLC = test system: NCI-H460 NSCLC
NCI-H522 lung = test system: NCI-H522 lung
OVCAR-3 ovarian = test system: OVCAR-3 ovarian
OVCAR-4 ovarian = test system: OVCAR-4 ovarian
OVCAR-5 ovarian = test system: OVCAR-5 ovarian
PC-3 prostate = test system: PC-3 prostate
RXF 393 renal = test system: RXF 393 renal
SF-268 CNS = test system: SF-268 CNS
SF-295 CNS = test system: SF-295 CNS
SF-539 CNS = test system: SF-539 CNS
SK-MEL-2 melanoma = test system: SK-MEL-2 melanoma
SK-MEL-28 melanoma = test system: SK-MEL-28 melanoma
SK-MEL-5 melanoma = test system: SK-MEL-5 melanoma
SK-OV-3 ovarian = test system: SK-OV-3 ovarian
SN12C renal = test system: SN12C renal
SNB-19 CNS = test system: SNB-19 CNS
SNB-75 CNS = test system: SNB-75 CNS
SR leukemia = test system: SR leukemia
SW-620 colon = test system: SW-620 colon
T-47D breast = test system: T-47D breast
TK-10 renal = test system: TK-10 renal
U251 glioblastoma = test system: U251 glioblastoma
UACC-257 melanoma = test system: UACC-257 melanoma
UACC-62 melanoma = test system: UACC-62 melanoma
UO-31 renal = test system: UO-31 renal

Cc1cccc2nc3cccc(C(=O)NCCNCCNCCNC(=O)c4cccc5nc6cccc(C)c6nc45)c3nc12
GI50 (NCI-H322M lung): 139 nM | TGI (NCI-H322M lung): 1140 nM | GI50 (NCI-H460 NSCLC): < 10 nM | TGI (NCI-H460 NSCLC): 229 nM | GI50 (NCI-H522 lung): 101 nM | TGI (NCI-H522 lung): 221 nM | GI50 (OVCAR-3 ovarian): < 10 nM | TGI (OVCAR-3 ovarian): 2620 nM | GI50 (OVCAR-4 ovarian): 188 nM | TGI (OVCAR-4 ovarian): 2020 nM | GI50 (OVCAR-5 ovarian): 62.3 nM | TGI (OVCAR-5 ovarian): > 100000 nM | GI50 (PC-3 prostate): 17.1 nM | TGI (PC-3 prostate): 2280 nM | GI50 (RXF 393 renal): < 10 nM | TGI (RXF 393 renal): 231 nM | GI50 (SF-268 CNS): 75.7 nM | TGI (SF-268 CNS): 318 nM | GI50 (SF-295 CNS): < 10 nM | TGI (SF-295 CNS): 3080 nM | GI50 (SF-539 CNS): < 10 nM | TGI (SF-539 CNS): 454 nM | GI50 (SK-MEL-2 melanoma): 71.3 nM | TGI (SK-MEL-2 melanoma): 209 nM | GI50 (SK-MEL-28 melanoma): 510 nM | TGI (SK-MEL-28 melanoma): 2140 nM | GI50 (SK-MEL-5 melanoma): < 10 nM | TGI (SK-MEL-5 melanoma): 1210 nM | GI50 (SK-OV-3 ovarian): 28.9 nM | TGI (SK-OV-3 ovarian): 3750 nM | GI50 (SN12C renal): 109 nM | TGI (SN12C renal): 300 nM | GI50 (SNB-19 CNS): 245 nM | TGI (SNB-19 CNS): > 100000 nM | GI50 (SNB-75 CNS): 127 nM | TGI (SNB-75 CNS): 316 nM | GI50 (SR leukemia): < 10 nM | GI50 (SW-620 colon): < 10 nM | TGI (SW-620 colon): 1710 nM | GI50 (T-47D breast): 564 nM | TGI (T-47D breast): 5310 nM | GI50 (TK-10 renal): < 10 nM | TGI (TK-10 renal): 6440 nM | GI50 (U251 glioblastoma): < 10 nM | TGI (U251 glioblastoma): 1780 nM | GI50 (UACC-257 melanoma): 1450 nM | TGI (UACC-257 melanoma): 3580 nM | GI50 (UACC-62 melanoma): < 10 nM | TGI (UACC-62 melanoma): 152 nM | GI50 (UO-31 renal): 47 nM | TGI (UO-31 renal): 19400 nM
